Measurements: patent US8623859B2, “Bradykinin B1 antagonists” (Evotec AG, priority 2008, dated 2014)
Counter-ions that a name gives are not always drawn.

Target: T1, human B1 (Homo sapiens, UniProt P46663)
T1 construct: host or cells: CHO-K1
T1 sequence (P46663 1-353): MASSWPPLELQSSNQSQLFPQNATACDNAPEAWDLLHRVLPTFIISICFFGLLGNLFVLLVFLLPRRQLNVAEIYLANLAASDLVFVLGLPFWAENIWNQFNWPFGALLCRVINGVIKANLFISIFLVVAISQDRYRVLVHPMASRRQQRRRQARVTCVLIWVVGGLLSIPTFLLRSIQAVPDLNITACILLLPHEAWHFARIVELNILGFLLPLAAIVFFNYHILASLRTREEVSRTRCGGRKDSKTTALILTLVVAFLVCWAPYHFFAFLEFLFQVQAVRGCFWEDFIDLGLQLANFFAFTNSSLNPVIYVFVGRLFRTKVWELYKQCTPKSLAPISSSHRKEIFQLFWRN
Experiment: Calcium flux assay for Bradykinin B1 antagonist, CHO-K1 cell line expressing human B1
Format: cell-based
Conditions: CHO-K1 cells expressing human B1, agonist Lys-(Des-Arg)-Bradykinin, read-out: Potency (IC50 value against human B1)
Procedure, shortened: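 CHO-K1 cells expressing human B1, loaded with 5 μM Fluo-4AM (2 h, 37° C) in HEPES buffer pH 7.4 with probenecid and 0.1% BSA, were preincubated 30 min at 25° C with compound (8 concentrations, triplicate, 1% DMSO) before B1 agonist addition. Ca2+ fluorescence monitored at 538 nm; background-normalized integrated values plotted against log antagonist concentration.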

Row | Structure (SMILES) | IC50
1 | COc1cc(C)c(S(=O)(=O)N(C)Cc2cc(C(=O)N(C)Cc3ccc(CN4CC(O)C4)cc3)co2)c(C)c1 [Ex 128, N-{4-[(3-Hydroxyazetidin-1-yl)methyl]benzyl}-5-({[(4-methoxy-2,6-dimethylphenyl)sulfonyl](methyl)amino}methyl)-N-methylfuran-3-carboxamide] | 100 to 1000 nM
2 | COc1cc(C)c(S(=O)(=O)N(C)Cc2nnc(C(=O)N3CCN(CC4CCN(C(=O)OC(C)(C)C)CC4)CC3)o2)c(C)c1 [Ex 263, tert-Butyl 4-[(4-{[5-({[(4-methoxy-2,6-dimethylphenyl)sulfonyl](methyl)amino}methyl)-1,3,4-oxadiazol-2-yl]carbonyl}piperazin-1-yl)methyl]piperidine-1-carboxylate] | 100 to 1000 nM
3 | COc1cc(C)c(S(=O)(=O)N(Cc2noc(C(=O)N3CCN(C4CCN(C)CC4)CC3)n2)C2CC2)c(C)c1 [Ex 311, N-Cyclopropyl-4-methoxy-2,6-dimethyl-N-[(5-{[4-(1-methylpiperidin-4-yl)piperazin-1-yl]carbonyl}-1,2,4-oxadiazol-3-yl)methyl]benzenesulfonamide] | < 10 nM
4 | COc1cc(C)c(S(=O)(=O)N(C)Cc2noc(C(=O)N3CCN(C4CCN(C)CC4)CC3)n2)c(C)c1 [Ex 302, 4-Methoxy-N,2,6-trimethyl-N-[(5-{[4-(1-methylpiperidin-4-yl)piperazin-1-yl]carbonyl}-1,2,4-oxadiazol-3-yl)methyl]benzenesulfonamide trifluoroacetate] | 100 to 1000 nM
5 | COc1cc(C)c(S(=O)(=O)N(C)Cc2nnc(C(=O)NCCc3ccc(C4=NCCN4)cc3)s2)c(C)c1 [Ex 330, N-{2-[4-(4,5-Dihydro-1H-imidazol-2-yl)phenyl]ethyl}-5-({[(4-methoxy-2,6-dimethylphenyl)sulfonyl](methyl)amino}methyl)-1,3,4-thiadiazole-2-carboxamide trifluoroacetamide] | < 10 nM
6 | CN(Cc1ccc(C2=NCCN2)cc1)C(=O)c1coc(CN(C2CC2)S(=O)(=O)c2c(Cl)cc(Br)cc2Cl)c1 [Ex 123, 5-({[(4-Bromo-2,6-dichlorophenyl)sulfonyl](cyclopropyl)amino}methyl)-N-[4-(4,5-dihydro-1H-imidazol-2-yl)benzyl]-N-methylfuran-3-carboxamide trifluoroacetate] | < 10 nM
7 | COc1cc(C)c(S(=O)(=O)N(C)Cc2cc(C(=O)N(C)Cc3nnc(CN4CCCC4)s3)co2)c(C)c1 [Ex 137, 5-({[(4-Methoxy-2,6-dimethylphenyl)sulfonyl](methyl)amino}methyl)-N-methyl-N-{[5-(pyrrolidin-1-ylmethyl)-1,3,4-thiadiazol-2-yl]methyl}furan-3-carboxamide] | 100 to 1000 nM
8 | COc1cc(C)c(S(=O)(=O)N(C)Cc2cc(C(=O)NCc3ccc(CN4CCCC4)c(F)c3)co2)c(C)c1 [Ex 152, N-[3-Fluoro-4-(pyrrolidin-1-ylmethyl)benzyl]-5-({[(4-methoxy-2,6-dimethylphenyl)sulfonyl](methyl)amino}methyl)furan-3-carboxamide trifluoroacetate] | 100 to 1000 nM
9 | COc1cc(C)c(S(=O)(=O)N(Cc2nc(C(=O)N3CCN(Cc4c(Cl)cncc4Cl)CC3)co2)C2CC2)c(C)c1 [Ex 233, N-Cyclopropyl-N-{[4-({4-[(3,5-dichloropyridin-4-yl)methyl]piperazin-1-yl}carbonyl)-1,3-oxazol-2-yl]methyl}-4-methoxy-2,6-dimethylbenzenesulfonamide trifluoroacetate] | 10 to 100 nM
10 | COc1cc(C)c(S(=O)(=O)N(C)Cc2cc(C(=O)N(C)Cc3ccc(CN4CCC(N(C)C)C4)cc3)co2)c(C)c1 (stereo not shown) [Ex 136, N-(4-{[3-(Dimethylamino)pyrrolidin-1-yl]methyl}benzyl)-5-({[(4-methoxy-2,6-dimethylphenyl)sulfonyl](methyl)amino}methyl)-N-methylfuran-3-carboxamide] | 10 to 100 nM
11 | COc1cc(C)c(S(=O)(=O)N(Cc2nc(C(=O)N(C)Cc3ccc(CN4CCC(N(C)C)C4)cc3)co2)C2CC2)c(C)c1 (stereo not shown) [Ex 190, 2-({Cyclopropyl[(4-methoxy-2,6-dimethylphenyl)sulfonyl]amino}methyl)-N-(4-{[3-(dimethylamino)pyrrolidin-1-yl]methyl}benzyl)-N-methyl-1,3-oxazole-4-carboxamide] | < 10 nM
12 | COc1cc(C)c(S(=O)(=O)N(C)Cc2cc(C(=O)N3CCN(CC4CCN(C)CC4)CC3)co2)c(C)c1 [Ex 32, 4-methoxy-N,2,6-trimethyl-N-{[4-({4-[(1-methylpiperidin-4-yl)methyl]piperazin-1-yl}carbonyl)furan-2-yl]methyl}benzenesulfonamide] | 100 to 1000 nM
13 | CN(CCc1ccc(C2=NCCN2)cc1)C(=O)c1coc(CN(C2CC2)S(=O)(=O)c2ccc(Cl)cc2Cl)n1 [Ex 214, 2-({Cyclopropyl[(2,4-dichlorophenyl)sulfonyl]amino}methyl)-N-{2-[4-(4,5-dihydro-1H-imidazol-2-yl)phenyl]ethyl}-N-methyl-1,3-oxazole-4-carboxamide trifluoroacetate] | 100 to 1000 nM
14 | COc1cc(C)c(S(=O)(=O)N(C)Cc2nnc(C(=O)N(C)Cc3cccc(CN4CCCC4)c3)o2)c(C)c1 [Ex 289, 5-({[(4-Methoxy-2,6-dimethylphenyl)sulfonyl](methyl)amino}methyl)-N-methyl-N-[3-(pyrrolidin-1-ylmethyl)benzyl]-1,3,4-oxadiazole-2-carboxamide] | 10 to 100 nM
15 | COc1cc(C)c(S(=O)(=O)N(C)Cc2nnc(C(=O)N3CCN(CC4CCN(C)CC4)CC3)s2)c(C)c1 [Ex 333, 4-Methoxy-N,2,6-trimethyl-N-{[5-({4-[(1-methylpiperidin-4-yl)methyl]piperazin-1-yl}carbonyl)-1,3,4-thiadiazol-2-yl]methyl}benzenesulfonamide] | 100 to 1000 nM
16 | CCN(Cc1cc(C(=O)NCCc2ccc(C3=NCCN3)cc2)co1)S(=O)(=O)c1c(C)cc(OC)cc1C [Ex 104, N-{2-[4-(4,5-Dihydro-1H-imidazol-2-yl)phenyl]ethyl}-5-({ethyl[(4-methoxy-2,6-dimethylphenyl)sulfonyl]amino}methyl)furan-3-carboxamide trifluoroacetate] | 10 to 100 nM
17 | COc1cc(C)c(S(=O)(=O)N(Cc2nc(C(=O)N(C)Cc3nc(CN4CCCC4)cs3)co2)C2CC2)c(C)c1 [Ex 200, 2-({Cyclopropyl[(4-methoxy-2,6-dimethylphenyl)sulfonyl]amino}methyl)-N-methyl-N-{[4-(pyrrolidin-1-ylmethyl)-1,3-thiazol-2-yl]methyl}-1,3-oxazole-4-carboxamide trifluoroacetate] | < 10 nM
18 | COc1cc(C)c(S(=O)(=O)N(C)Cc2nc(C(=O)N3CCN(CCN4CCCC4)CC3)co2)c(C)c1 [Ex 164, 4-Methoxy-N,2,6-trimethyl-N-[(4-{[4-(2-pyrrolidin-1-ylethyl)piperazin-1-yl]carbonyl}-1,3-oxazol-2-yl)methyl]benzenesulfonamide] | 100 to 1000 nM
19 | COc1cc(C)c(S(=O)(=O)N(Cc2nc(C(=O)N3CCC(C(=O)N4CCN(C)CC4)CC3)co2)C2CC2)c(C)c1 [Ex 229, N-Cyclopropyl-4-methoxy-2,6-dimethyl-N-{[4-({4-[(4-methylpiperazin-1-yl)carbonyl]piperidin-1-yl}carbonyl)-1,3-oxazol-2-yl]methyl}benzenesulfonamide trifluoroacetate] | 100 to 1000 nM
20 | COc1cc(C)c(S(=O)(=O)N(C)Cc2cc(C(=O)NCc3ccc(C4=NCCN4)cc3)co2)c(C)c1 [Ex 6, N-[4-(4,5-dihydro-1H-imidazol-2-yl)benzyl]-5-({[(4-methoxy-2,6-dimethylphenyl)sulfonyl](methyl)amino}methyl)furan-3-carboxamide] | 10 to 100 nM
21 | COc1cc(C)c(S(=O)(=O)N(Cc2noc(C(=O)N3CCN(CCCCN(C)C)CC3)n2)C2CC2)c(C)c1 [Ex 320, N-Cyclopropyl-N-{[5-({4-[4-(dimethylamino)butyl]piperazin-1-yl}carbonyl)-1,2,4-oxadiazol-3-yl]methyl}-4-methoxy-2,6-dimethylbenzenesulfonamide trifluoroacetate] | 100 to 1000 nM
22 | COc1cc(C)c(S(=O)(=O)N(C)Cc2nc(C(=O)NCc3cccc(CN4CCCC4)c3)co2)c(C)c1 [Ex 74, 2-({[(4-Methoxy-2,6-dimethylphenyl)sulfonyl](methyl)amino}methyl)-N-[3-(pyrrolidin-1-ylmethyl)benzyl]-1,3-oxazole-4-carboxamide] | < 10 nM
23 | COc1cc(C)c(S(=O)(=O)N(C)Cc2nnc(C(=O)N3CCN(CCCN4CCCC4)CC3)o2)c(C)c1 [Ex 259, 4-Methoxy-N,2,6-trimethyl-N-[(5-{[4-(3-pyrrolidin-1-ylpropyl)piperazin-1-yl]carbonyl}-1,3,4-oxadiazol-2-yl)methyl]benzenesulfonamide] | 10 to 100 nM
24 | COc1cc(C)c(S(=O)(=O)N(Cc2noc(C(=O)N(C)Cc3nc(CN4CCCC4)cs3)n2)C2CC2)c(C)c1 [Ex 307, 3-({Cyclopropyl[(4-methoxy-2,6-dimethylphenyl)sulfonyl]amino}methyl)-N-methyl-N-{[4-(pyrrolidin-1-ylmethyl)-1,3-thiazol-2-yl]methyl}-1,2,4-oxadiazole-5-carboxamide trifluoroacetate] | 10 to 100 nM
25 | COc1cc(C)c(S(=O)(=O)N(C)Cc2cc(C(=O)NCCc3ccc(C4=N[C@@H]5CCCC[C@H]5N4)cc3)co2)c(C)c1 [Ex 36, N-(2-{4-[(3aR,7aR)-3a,4,5,6,7,7a-hexahydro-1H-benzimidazol-2-yl]phenyl}ethyl)-5-({[(4-methoxy-2,6-dimethylphenyl)sulfonyl](methyl)amino}methyl)furan-3-carboxamide] | 10 to 100 nM
